Structures can show the parent of a compound that is named as a salt.
Assays:
IL-2 = assay: Inhibition of IL-2 release in human whole blood; assay type: cell-based; details: Concanavalin A + PMA, 20 h, read-out: IC 50 Human Whole Blood IL-2
Description: (§1) Inhibition of cytokine IL-2, IL-4, IL-5 and TNF α was determined as described below.
(§2) Freshly collected HWB was diluted with RPMI medium (1:4.5) and added to a 96-well plate. Wells were incubated with desired concentrations of the inhibitor for 15 min. Cytokine release was induced by the addition of Concanavalin A (25 μg/ml)+Phorbol Myristate Acetate (50 ng/ml) for IL-2 & TNFα or with Phytohemagglutinin (5 μg/ml) for IL-4 & IL-5 and incubated at 37° C. in an atmosphere containing […]. Supernatant was collected after 20 h (IL-2 & TNFα) or 48 h (IL-4 & IL-5) for estimation of cytokines by ELISA. Data were analysed using GraphPad Prism. IC50 values for each compound were determined based on the percent inhibition due to the test compound compared to the control.

CRAC channels [1] = target: T1, CRAC channels (Homo sapiens (Human), UniProt Q96D31); assay: In-vitro CRAC channel inhibition assay in NCI-H460 cancer cell line (thapsigargin-induced calcium influx); assay type: cell-based; details: NCI-H460 cells; for inhibition at 1 µM: read-out: NCI-H460 Cell Ca assay % inhibition @ 1 μM; for IC50: read-out: NCI-H460 Cell Ca assay IC 50 nM
T1 sequence (Q96D31 whole entry): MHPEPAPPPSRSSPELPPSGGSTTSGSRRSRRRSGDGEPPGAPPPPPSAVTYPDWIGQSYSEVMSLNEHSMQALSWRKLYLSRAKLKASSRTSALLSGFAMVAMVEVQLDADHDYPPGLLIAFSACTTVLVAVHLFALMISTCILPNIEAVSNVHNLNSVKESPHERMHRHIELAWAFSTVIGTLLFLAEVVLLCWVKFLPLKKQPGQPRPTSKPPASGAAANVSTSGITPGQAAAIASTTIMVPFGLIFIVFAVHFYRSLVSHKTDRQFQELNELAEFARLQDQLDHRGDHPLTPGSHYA
Description: Inhibition of CRAC channels was determined following thapsigargin (Sigma, Cat # T9033) induced endoplasmic calcium release in NCI-H460 cells (National Centre For Cell Science (NCCS), Pune).
Cells (30,000 per well) were plated overnight in complete RPMI medium. Medium was substituted with Ca^2+ and Mg^2+ free Hanks buffer and Fluo-8 NW dye (ABD Bioquest, Inc., Sunnyvale, Calif.) loading solution in 96-well black plate. Plate was incubated at 37° C./5% CO2 for 30 min followed by further 15 mM incubation at room temperature. Test compounds (DMSO stocks diluted in Ca^2+ and Mg^2+ free Hanks buffer) at desired concentrations were added to the wells and incubated for 15 min. Thapsigargin (1 μM final concentration) was added to the wells and incubated for 15 min to inhibit the Sarco-endoplasmic reticulum Ca^2+ ATPase pump thereby depleting endoplasmic calcium and raising cytosolic calcium concentrations. Store-operated calcium entry was initiated by adding extracellular Ca^2+ to a final concentration of 2.5 mM. Fluorescence was monitored over 30 mM on a plate reader (BMG Labtech., Germany) with excitation at 485 nm and an emission wavelength at 520 nm. Data were analyzed using GraphPad Prism. IC50 for each compound was determined based on the percent inhibition of Thapsigargin-induced calcium influx into cells.
For Methodology Refer 1B.

TNFα = assay: Inhibition of TNFα release in human whole blood; assay type: cell-based; details: Concanavalin A + PMA, 20 h, read-out: IC 50 Human Whole Blood TNFα
Description: as §1, §2

CRAC channels [2] = target: T1, CRAC channels; assay: In-vitro CRAC channel inhibition assay in Jurkat cells (thapsigargin-induced calcium influx); assay type: cell-based
Description: Inhibition of CRAC channels was determined following thapsigargin (Sigma, Cat # T9033) induced endoplasmic calcium release in Jurkat cells. (see Yasurio Yonetoky et. al Bio. & Med. Chem. 14 (2006) 4750-4760). Cells were centrifuged and resuspended in equal volumes ° f Ca^2+ and Mg^2+ free Hanks buffer and Fluo-8 NW dye (ABD Bioquest, Inc., Sunnyvale, Calif.) loading solution at 2×10^5 cells/100 μl/well in 96-well black plate. Plate is incubated at 37° C./5% CO2 for 30 mM followed by further 15 mM incubation at room temperature. Test compounds (DMSO stocks diluted in Ca^2+ and Mg^2+ free Hanks buffer) at desired concentrations were added to the wells and incubated for […]. Thapsigargin (1 μM final concentration) was added to the wells and incubated for 15 min to inhibit the Sarco-endoplasmic reticulum Ca^2+ ATPase pump thereby depleting endoplasmic calcium and raising cytosolic calcium concentrations. Store-operated calcium entry was initiated by adding extracellular Ca^2+ to a final concentration of 1.8 mM. Fluorescence was monitored over […] on a plate reader (BMG Labtech., Germany) with excitation at 485 nm and an emission wavelength at 520 nm. Data were analyzed using GraphPad Prism. IC50 for each compound was determined based on the percent inhibition of thapsigargin-induced calcium influx into cells.

NCI-H460 cells = assay: In-vitro cell proliferation assay in NCI-H460 cancer cell line (MTT); assay type: cell-based, human; details: Homo sapiens; for inhibition at 10 µM: NCI-H460, 10 μM, 48 h; for IC50: NCI-H460, 48 h, read-out: NCI-H460 Cell line assay G1 50 nM
Description: Growth inhibition assays were carried out using 10% FBS supplemented media. Cells were seeded at a concentration of 5000 cells/well in a 96-well plate. Test compound at a concentration range from 0.01 to 10000 nM were added after 24 h. Growth was assessed using the 3-[4,5-dimethylthiazol-2-yl]-2,5-diphenyltetrazolium bromide (MTT) dye reduction test at 0 h (prior to the addition of the test compound) and 48 h after the addition of test compound. Absorbance was read on a Fluostar Optima (BMG Labtech, Germany) at a wave length of 450 nm. Data were analysed using GraphPad Prism. IC-50 for each compound was determined based on the % inhibition due to the test compound compared to the control.
For methods of cell proliferation assay, see, for example, Mosmann. T., Journal of Immunological Methods, 65(1-2), 55-63, (1983).
The effect of CRAC and/or STIM protein on the proliferation and viability of lung cancer cells was determined as follows.
For Methodology Refer 1C.

Row | IC50 (IL-2) | inhibition at 1 µM (CRAC channels [1]) | IC50 (TNFα) | IC50 (CRAC channels [2]) | inhibition at 1 µM (CRAC channels [2]; 1 uM) | IC50 (NCI-H460 cells) | IC50 (CRAC channels [1]) | % inhibition (1 uM) (CRAC channels [2]; 1 uM) | SMILES | inhibition at 10 µM (NCI-H460 cells)
1 |  | 100% |  |  | 94% | 710 nM |  |  | O=C(Nc1ccc(-n2nc(C(F)(F)F)cc2C2CC2)cc1)c1ccc2ncccc2c1 [Example 17, N-{4-[5-cyclopropyl-3-(trifluoromethyl)-1H-pyrazol-1-yl]phenyl}quinoline-6-carboxamide hydrochloride] | 
2 |  |  |  |  | 14.8% |  |  |  | Nc1ncnc2c1ncn2CC(=O)Nc1ccc(-n2nc(C(F)(F)F)cc2C2CC2)cc1 [Example 24, 2-(6-amino-9H-purin-9-yl)-N-{4-[5-cyclopropyl-3-(trifluoromethyl)-1H-pyrazol-1-yl]phenyl}acetamide] | 84.4%
3 | 125 nM | 98.1% | 118 nM |  | 100% | 358 nM |  |  | O=C(Cc1ccc2ncccc2c1)Nc1ccc(-n2nc(C(F)(F)F)cc2C2CC2)cc1 [Example 27, N-{4-[5-cyclopropyl-3-(trifluoromethyl)-1H-pyrazol-1-yl]phenyl}-2-(quinolin-6-yl)acetamide Hydrochloride] | 
4 |  |  |  |  | 81.1% | 1520 nM |  |  | O=C(Nc1ccc(-n2nc(C(F)(F)F)cc2C2CC2)c(F)c1)c1ccc2nn[nH]c2c1 [Example 29, N-{4-[5-cyclopropyl-3-(trifluoromethyl)-1H-pyrazol-1-yl]-3-fluorophenyl}-1H-benzo[d][1,2,3]triazole-6-carboxamide] | 100%
5 |  |  |  |  | 51.2% | 628 nM |  |  | O=C(Cc1ccc2ncccc2c1)Nc1ccc(-n2nc(C(F)(F)F)cc2C2CC2)nc1 [Example 34, N-{6-[5-cyclopropyl-3-(trifluoromethyl)-1H-pyrazol-1-yl]pyridin-3-yl}-2-(quinolin-6-yl)acetamide hydrochloride] | 82.7%

The next lines start with the molecule.

Row | SMILES | IC50 (IL-2) | inhibition at 1 µM (CRAC channels [1]) | IC50 (TNFα) | IC50 (CRAC channels [2]) | inhibition at 1 µM (CRAC channels [2]; 1 uM) | IC50 (NCI-H460 cells) | IC50 (CRAC channels [1]) | % inhibition (1 uM) (CRAC channels [2]; 1 uM) | inhibition at 10 µM (NCI-H460 cells)
6 | O=C(Nc1ccc(-n2nc(C3CC3)cc2C2CC2)cc1)c1ccc2nn[nH]c2c1 [Example 2, N-[4-(3,5-dicyclopropyl-1H-pyrazol-1-yl)phenyl]-1H-benzo[d][1,2,3]triazole-6-carboxamide] | 102 nM | 91.1% | 148 nM | 182 nM | 78% |  |  |  | 34%
7 | O=C(Nc1ccc(-n2nc(C3CC3)cc2C2CC2)cc1)c1ccc2ncccc2c1 [Example 3, N-[4-(3,5-dicyclopropyl-1H-pyrazol-1-yl)phenyl]quinoline-6-carboxamide hydrochloride] |  | 100% |  |  | 100% | 261 nM |  |  | 
8 | O=C(Nc1ccc(-n2nc(C3CC3)cc2C2CC2)cc1)c1ccc2nccnc2c1 [Example 4, N-[4-(3,5-dicyclopropyl-1H-pyrazol-1-yl)phenyl]quinoxaline-6-carboxamide] |  | 80.7% |  |  | 85% |  |  |  | 41%
9 | O=C(Cn1cnc2ccccc21)Nc1ccc(-n2nc(C3CC3)cc2C2CC2)cc1 [Example 5, 2-(1H-benzo[d]imidazol-1-yl)-N-[4-(3,5-dicyclopropyl-1H-pyrazol-1-yl)phenyl]acetamide] |  |  |  | 383 nM | 88.5% | 177 nM | 79.9 nM |  | 
10 | O=C(Cn1nnc2ccccc21)Nc1ccc(-n2nc(C3CC3)cc2C2CC2)cc1 [Example 6, 2-(1H-benzo[d][1,2,3]triazol-1-yl)-N-[4-(3,5-dicyclopropyl-1H-pyrazol-1-yl)phenyl]acetamide] | 52.2 nM |  | 165 nM | 51.3 nM | 94.6% |  |  |  | 
11 | Cl.O=C(Cc1ccc2ncccc2c1)Nc1ccc(-n2nc(C3CC3)cc2C2CC2)cc1 [Example 10, N-[4-(3,5-dicyclopropyl-1H-pyrazol-1-yl)phenyl]-2-(quinolin-6-yl)acetamide hydrochloride] |  |  |  |  |  |  | 72.7 nM | 100% | 
12 | O=C(Cc1ccc2ncccc2c1)Nc1ccc(-n2nc(C3CC3)cc2C2CC2)c(F)c1 [Example 12, N-[4-(3,5-dicyclopropyl-1H-pyrazol-1-yl)-3-fluorophenyl]-2-(quinolin-6-yl)acetamide Hydrochloride] |  |  |  | 263 nM | 100% | 100 nM |  |  | 90%
